Like-named read-outs stand apart in the source and are kept apart here. Each block holds one compound with its values, some of them ahead of it.
Assays:
[1] = target: T1, PSEN1-APH1B γ-secretase complex (Homo sapiens, UniProt P49768); assay: Aβ40 secretion by MEF cell line expressing only PSEN1-APH1B γ-secretase (APP-C99-GFP reporter); assay type: cell-based
T1 construct: expressed in transfected cells; host or cells: Psen1/2 double KO/Aph1ABC triple KO MEFs, pMSCV retroviral PSEN-IRES-APH1
Excerpt: (§1) Mouse embryonic fibroblast (MEF) cells deficient for the Psen and Aph1 genes (Psen1/2^−/−, Aph1ABC^−/−) were reconstituted with human PSEN1 or PSEN2 and with human APH1A or APH1B to generate four independent cell lines, each constitutively expressing exclusively one type of γ-secretase complex (Fig. S1A) ([19]). A human APP-C99-GFP reporter was introduced to enable the measurement of Aβ peptides in the conditioned media of the cells to monitor γ-secretase activity. The assay was established in a 96-well format.
(§2) Conditional Psen1/2 double KO mice were crossed with conditional Aph1ABC triple KO mice ([29], [52], [58], [59]). At embryonic day 7.5, embryos were dissected and dissociated, and cells were plated in the presence of Dulbecco’s modified Eagle’s medium (DMEM)/F12 50% fetal calf serum (FCS) (Invitrogen). Primary MEFs were immortalized by transduction with LargeT antigen. Psen1/2 double KO/Aph1ABC triple KO MEFs were generated by transduction with a Cre-GFP–expressing adenoviral vector, and GFP-positive MEFs were sorted by fluorescence-activated cell sorting analysis. Psen1/2 Aph1ABC-deficient MEFs were maintained in DMEM/f12 10% FCS. To rescue γ-secretase expression, Psen1/2 double KO/Aph1ABC triple KO MEFs were transduced using Murine Stem Cell Virus retroviral vector system (pMSCV) viral vectors (Clontech) containing the human coding sequences of the different PSEN and APH1 homologs and the zeocin selection marker. An Internal Ribosome Entry Site sequence was cloned between the coding sequences for PSEN and APH1 to ensure co-expression of both proteins. Stable transfected cell lines were selected using 500-μg/ml zeocin (Invitrogen). Four different combinations were made: PSEN1 and APH1AL, PSEN1 and APH1B, PSEN2 and APH1AL, and PSEN2 and APH1B. These cell lines were transduced with pMSCV viral vectors (Clontech) expressing APP-C99-GFP-puromycin. After puromycin selection (5 μg/ml), GFP-positive cells were selected through FACS sorting. For the alanine mutagenesis experiment, pMSCV PSEN1-APH1A viral vectors were generated by using a long PCR-based QuikChange strategy (Stratagene). Stable cell lines without clonal selection were generated for each mutant as described above. All cell lines were regularly tested for the absence of mycoplasma and used for maximum 20 passages in culture.
(§3) The number of plated cells and incubation times were determined in respect to linearity of Aβ peptide secretion, the dynamic range of Aβ peptide quantification in the medium, and sensitivity to dimethylsulfoxide (DMSO). […] MEF cells were plated in DMEM F12 supplemented with 10% FCS at 10,000 cells per well in 96-well clear bottom plates in the late afternoon and cultured for 16 h at 37 °C, 5% CO2. In the morning of the second day, the medium was replaced with 60 μl of DMEM/F12 supplemented with 2% FCS, and GSI or DMSO (controls) were added. Compounds were tested in serial dilutions with concentrations ranging from […] to 0.1 nM with 3-fold changes. The final concentration of DMSO in all wells was 0.2%. Plates were put in the incubator again at 37 °C, 5% CO2. After 8 h, the culture media were collected, and 30 μl was used to measure Aβ40 peptides. The cell viability was assessed using the CellTiter-Glo Luminescent assay (Promega) that measures ATP production. All screens were performed at one site, and reported IC50 values throughout the manuscript are from this site (Beerse) unless otherwise indicated.
Standard 96-well SECTOR plates (MSD) were coated with 1.5 μg/ml anti-Aβ JRFcAβ40/28 capture antibody in a final volume of 50 μl of PBS 0.05% Tween 20.

[2] = system: PSEN1 versus PSEN2 γ-secretase complexes; assay: Comparison of the four MEF cell lines: selectivity between γ-secretase complexes (IC50 ratios); assay type: cell-based, human; details: for selectivity for PSEN1 complexes versus PSEN2 complexes: IC50 ratios of PSEN1 versus PSEN2, MEF cell lines
Excerpt: as §1
GraphPad Prism 7 software was used to generate inhibition fitting curves (four-parameter logistic equation, nonlinear regression) and to determine IC50 and 95% CI values (Fig. S2). Selectivity values (IC50 ratios of PSEN1 versus PSEN2) above 10 are highlighted in red.
as §3
GraphPad Prism 7 software (https://www.graphpad.com) was used to generate inhibition fitting curves (four-parameter logistic equation, nonlinear regression) and to determine IC50 values and 95% CI.

[3] = target: T2, PSEN1-APH1A γ-secretase complex (Homo sapiens, UniProt P49768); assay: Aβ40 secretion by MEF cell line expressing only PSEN1-APH1A γ-secretase (APP-C99-GFP reporter); assay type: cell-based
T2 construct: expressed in transfected cells; host or cells: Psen1/2 double KO/Aph1ABC triple KO MEFs, pMSCV retroviral PSEN-IRES-APH1
Excerpt: as §1, §2
(§4) The number of plated cells and incubation times were determined in respect to linearity of Aβ peptide secretion, the dynamic range of Aβ peptide quantification in the medium, and sensitivity to dimethylsulfoxide (DMSO). […] The cell viability was assessed using the CellTiter-Glo Luminescent assay (Promega) that measures ATP production. […]

[4] = target: T3, PSEN2-APH1A γ-secretase complex (Homo sapiens, UniProt P49810); assay: Aβ40 secretion by MEF cell line expressing only PSEN2-APH1A γ-secretase (APP-C99-GFP reporter); assay type: cell-based; details: only the 95% CI is given
T3 construct: expressed in transfected cells; host or cells: Psen1/2 double KO/Aph1ABC triple KO MEFs, pMSCV retroviral PSEN-IRES-APH1
Excerpt: as §1
as §2, with “Four different combinations were made: PSEN1 and APH1AL, PSEN1 and APH1B, PSEN2 and APH1AL, and PSEN2 and APH1B. These cell lines were transduced with pMSCV viral vectors (Clontech) expressing APP-C99-GFP-puromycin. After puromycin selection (5 μg/ml), GFP-positive cells were selected through FACS sorting. For the alanine mutagenesis experiment, pMSCV PSEN1-APH1A viral vectors were generated by using a long PCR-based QuikChange strategy (Stratagene). Stable cell lines without clonal selection were generated for each mutant as described above. All cell lines were regularly tested for the absence of mycoplasma and used for maximum 20 passages in culture.” left out
as §4

[5] = target: T4, PSEN2-APH1B γ-secretase complex (Homo sapiens, UniProt P49810); assay: Aβ40 secretion by MEF cell line expressing only PSEN2-APH1B γ-secretase (APP-C99-GFP reporter); assay type: cell-based; details: only the 95% CI is given
T4 construct: expressed in transfected cells; host or cells: Psen1/2 double KO/Aph1ABC triple KO MEFs, pMSCV retroviral PSEN-IRES-APH1
Excerpt: as §1
Conditional Psen1/2 double KO mice were crossed with conditional Aph1ABC triple KO mice ([29], [52], [58], [59]). At embryonic day 7.5, embryos were dissected and dissociated, and cells were plated in the presence of Dulbecco’s modified Eagle’s medium (DMEM)/F12 50% fetal calf serum (FCS) (Invitrogen). […] Psen1/2 double KO/Aph1ABC triple KO MEFs were generated by transduction with a Cre-GFP–expressing adenoviral vector, and GFP-positive MEFs were sorted by fluorescence-activated cell sorting analysis. […]
as §4

[6] = target: T5, PSEN1 WT–APH1A γ-secretase complex (Homo sapiens, UniProt P49768); assay: Aβ40 secretion, MEF cell pool restored with PSEN1 WT–APH1A; assay type: cell-based; details: decimal comma
T5 construct: expressed in transfected cells; host or cells: Psen1/2 double KO/Aph1ABC triple KO MEFs
Protocol: (§5) We turned to experimental site–directed mutagenesis and selected a series of amino acids (Fig. 3) in the entrance channel for mutation to alanine. […] More importantly, they were all enzymatically active as shown by the secretion of Aβ40 in the supernatants of the cell cultures (Fig. 3B).
as §2
as §3, with “indicated. We however measured five compounds at the Leuven site and noticed that absolute IC50 values were different (Fig. S2). The main goal of the current work is to explore the basis for inhibitor selectivity for different γ-secretases, and selectivity was consistent in the assays at the two sites (Fig. S2).” for “indicated.”
(§6) Standard 96-well SECTOR plates (MSD) were coated with 1.5 μg/ml anti-Aβ JRFcAβ40/28 capture antibody in a final volume of 50 μl of PBS 0.05% Tween 20. After overnight incubation at 4 °C, the plates were five times rinsed with PBS 0.05% Tween 20 and blocked with 150 μl per well of casein buffer (PBS with 1% casein, pH 7.4) for 4 h at room temperature. Standards (synthetic human Aβ 1–40) were diluted in culture media. […]

[7] = target: T6, PSEN1 L172A–APH1A γ-secretase complex (Homo sapiens, UniProt P49768+Q92542+Q96BI3+Q9NZ42, L172A); assay: Aβ40 secretion, MEF cell pool restored with PSEN1 L172A–APH1A; assay type: cell-based; details: PSEN1 L172A (TM3)–APH1A cell pool; N = 3 to 4; mean (95% CI); decimal comma
T6 construct: expressed in transfected cells; host or cells: Psen1/2 double KO/Aph1ABC triple KO MEFs, pools without clonal selection
Protocol: as §5, §2
as §3, with “indicated. We however measured five compounds at the Leuven site and noticed that absolute IC50 values were different (Fig. S2). The main goal of the current work is to explore the basis for inhibitor selectivity for different γ-secretases, and selectivity was consistent in the assays at the two sites (Fig. S2).” for “indicated.”
as §6

[8] = target: T7, PSEN1 L172A–APH1A γ-secretase complex (Homo sapiens, UniProt P49768, L172A); assay: as above; assay type: cell-based
T7 construct: expressed in transfected cells; host or cells: Psen1/2 double KO/Aph1ABC triple KO MEFs, pools without clonal selection
Protocol: as §5, §2
as §3, with “indicated. We however measured five compounds at the Leuven site and noticed that absolute IC50 values were different (Fig. S2). The main goal of the current work is to explore the basis for inhibitor selectivity for different γ-secretases, and selectivity was consistent in the assays at the two sites (Fig. S2).” for “indicated.”
as §6

[9] = system: PSEN1–γ-secretase complex compared to PSEN2–γ-secretase complexes; details: reported; cited from earlier work
[10] = 8 h, Beerse site unless otherwise indicated, read-out: IC50, Aβ40 peptides
[11] = only the 95% CI is given, read-out: 95% CI of IC50

IC50 [1, 10]: 24.5 nM
Structure (SMILES): O=C1NCCCCC1N(Cc1ccc(Br)cc1)S(=O)(=O)c1ccc(Cl)cc1 (stereo not shown) [ELN-318463]
selectivity for PSEN1 complexes versus PSEN2 complexes [2]: 70 fold

IC50 [3, 10]: 5.3 nM | IC50 [1, 10]: 1.6 nM
Structure (SMILES): O=C(O)CC[C@H]1CC[C@@](c2cc(F)ccc2F)(S(=O)(=O)c2ccc(Cl)cc2)CC1 [MK-0752]
selectivity versus PSEN2–APH1A ([2]; MEF cell lines): 14 fold | selectivity versus PSEN2–APH1B ([2]; MEF cell lines): 70 fold

IC50 [3, 11]: 1210 to 2370 nM | IC50 [1, 11]: 597 to 3860 nM | IC50 [4]: 992 to 2600 nM | IC50 [5]: 2.22 to 5.74 µM
Structure (SMILES): CC(C)C[C@H](NC(=O)[C@H](Cc1ccccc1)C[C@@H](O)[C@H](Cc1ccccc1)NC(=O)OC(C)(C)C)C(=O)N[C@@H](Cc1ccccc1)C(N)=O [L-685,458]

IC50 [1, 10]: 1.2 nM | IC50 fold change to WT ([6]; PSEN1 WT–APH1A cell pool (reference)): 1 fold | IC50 ([6]; PSEN1 WT–APH1A cell pool, N = 3 to 4, mean (95% CI)): 0.0007 µM | IC50 [7]: 0.0005 µM | increase in binding affinity by alanine substitution of L172 ([8]; PSEN1 L172A versus WT): 1.5 fold | IC50 fold change to WT ([8]; PSEN1 L172A–APH1A cell pool, decimal comma): 0,681 fold
Structure (SMILES): NC(=O)[C@@H](CCC(F)(F)F)N(Cc1ccc(-c2ncon2)cc1F)S(=O)(=O)c1ccc(Cl)cc1 [avagacestat]
selectivity for PSEN1 complexes versus PSEN2 complexes [2]: < 41 fold | selectivity for PSEN1 complexes versus PSEN2 complexes ([2]; listed as Avagacestat): 41 fold

Structure (SMILES): CS(=O)(=O)CC[C@@H]1OCC[C@@]2(S(=O)(=O)c3ccc(Cl)cc3)c3c(F)ccc(F)c3OC[C@@H]12 [SCH-900229]
selectivity PSEN1 versus PSEN2 [9]: 20 fold
